From US10253039B2, “Inhibitors of bacterial DNA gyrase with efficacy against gram-negative bacteria” (priority 2014, dated 2019)
≈ marks a conversion by molar mass, not a printed value. Where two headings read alike, the source gives them in different places.

Legend:
Assay type in all cases: cell-based
Edwardsiella tarda = assay: MIC, microdilution in 96-well plates
Outline: (§1)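 Determined via CLSI-guided microdilution: triplicate two-fold compound gradients, a DMSO vehicle column, and cultures seeded 1:10000 in LB from growing cells. Incubation lasted 16-18 hours at 37° C. under shaking, with MIC called as the lowest concentration lacking visible growth.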

E. coli BW25113 = assay: MIC, microdilution in 96-well plates; conditions: Escherichia coli
Outline: as §1

Shigella flexneri = assay: MIC, 20-strain panel
Outline: as §1

[1] = system: Salmonella enterica subsp. enterica typhimurium; assay: MIC, 20-strain panel
Outline: as §1

[2] = system: Staphylococcus epidermidis; assay: MIC, 20-strain panel
Outline: as §1

[3] = system: Staphylococcus saprophyticus subsp. saprophyticus; assay: MIC, 20-strain panel
Outline: as §1

[4] = system: Staphylococcus aureus subsp. aureus; assay: MIC, 20-strain panel
Outline: as §1

E. coli JW5503 (deltolC) = assay: MIC, 20-strain panel; conditions: Escherichia coli
Outline: as §1

[5] = system: Klebsiella pneumoniae subsp. pneumoniae; assay: MIC, 20-strain panel
Outline: as §1

Streptococcus pyogenes = assay: MIC, 20-strain panel
Outline: as §1

Streptococcus agalactiae = assay: MIC, 20-strain panel
Outline: as §1

E. coli MG1655 = assay: MIC, 20-strain panel; conditions: Escherichia coli
Outline: as §1

[6] = BW25113, B: E. coli BW25113, read-out: MIC
[7] = F: Salmonella enterica subsp. enterica Typhimurium
[8] = H: Staphylococcus aureus subsp. aureus, read-out: MIC
[9] = E: Klebsiella pneumoniae subsp. pneumoniae
[10] = MG1655, A: E. coli MG1655, read-out: MIC
[11] = BW25113, E. coli BW25113, read-out: MIC
[12] = Salmonella enterica subsp. enterica Typhimurium
[13] = Staphylococcus aureus subsp. aureus, read-out: MIC
[14] = Klebsiella pneumoniae subsp. pneumoniae
[15] = MG1655, E. coli MG1655, read-out: MIC

| Structure (SMILES) | MIC (Edwardsiella tarda; D: Edwardsiella tarda) | MIC (E. coli BW25113; [6]) | MIC (Shigella flexneri; G: Shigella flexneri) | MIC [1, 7] | MIC [2] | MIC [3] | MIC [4, 8] | MIC (E. coli JW5503 (deltolC); C: E. coli JW5503 (deltolC)) | MIC [5, 9] | MIC (Streptococcus pyogenes) | MIC (Streptococcus agalactiae) | MIC (E. coli MG1655; [10]) | MIC (Edwardsiella tarda) | MIC (E. coli BW25113; [11]) | MIC (Shigella flexneri) | MIC [1, 12] | MIC [4, 13] | MIC (E. coli JW5503 (deltolC); E. coli JW5503 (deltolC)) | MIC [5, 14] | MIC (E. coli MG1655; [15]) | other results |
| --- | --- | --- | --- | --- | --- | --- | --- | --- | --- | --- | --- | --- | --- | --- | --- | --- | --- | --- | --- | --- | --- |
| O=S(=O)(N[C@@H]1CCN(Cc2ccc(-c3cccs3)cc2)C1)c1cccc(OC(F)(F)F)c1 [Compound 53] | > 8 µg/mL | > 8 µg/mL | > 8 µg/mL | > 8 µg/mL | 8 µg/mL (≈ 16.6 µM) | > 8 µg/mL | > 8 µg/mL | 4 µg/mL (≈ 8.29 µM) | > 8 µg/mL | > 8 µg/mL | > 8 µg/mL | > 8 µg/mL |  |  |  |  |  |  |  |  |  |
| O=S(=O)(N[C@@H]1CCN(Cc2ccc(OC3CC3)cc2)C1)c1cc(F)cc(C(F)(F)F)c1 [Compound 152] |  |  |  |  | > 8 µg/mL | > 8 µg/mL |  |  |  | > 8 µg/mL | > 8 µg/mL |  | > 8 µg/mL | > 8 µg/mL | > 8 µg/mL | > 8 µg/mL | > 8 µg/mL | 8 µg/mL (≈ 17.4 µM) | > 8 µg/mL | > 8 µg/mL |  |
| O=S(=O)(N[C@@H]1CCN(Cc2ccc(OC3CC3)cc2)C1)c1cnc2ccsc2c1 [Compound 158] |  |  |  |  | > 8 µg/mL | > 8 µg/mL |  |  |  | > 8 µg/mL | > 8 µg/mL |  | > 8 µg/mL | > 8 µg/mL | > 8 µg/mL | > 8 µg/mL | > 8 µg/mL | > 8 µg/mL | > 8 µg/mL | > 8 µg/mL |  |
| O=S(=O)(N[C@@H]1CCN(Cc2ccc(OC3CCC3)cc2)C1)c1cccc(C(F)(F)F)c1 [Compound 5] | > 8 µg/mL | ~8 µg/mL (≈ 17.6 µM) | > 8 µg/mL | 8 µg/mL (≈ 17.6 µM) | > 8 µg/mL | > 8 µg/mL | > 8 µg/mL | 0.125 µg/mL (≈ 0.275 µM) | > 8 µg/mL | > 8 µg/mL | > 8 µg/mL | > 8 µg/mL |  |  |  |  |  |  |  |  |  |
| CC(C)Oc1ccc(CN2CC[C@@H](NS(=O)(=O)c3cc(C(F)(F)F)cc(C(F)(F)F)c3)C2)cc1 [Compound 135] |  |  |  |  | > 8 µg/mL | > 8 µg/mL |  |  |  | > 8 µg/mL | > 8 µg/mL |  | > 8 µg/mL | > 8 µg/mL | > 8 µg/mL | > 8 µg/mL | > 8 µg/mL | 8 µg/mL (≈ 15.7 µM) | > 8 µg/mL | > 8 µg/mL |  |
| CC(C)Oc1c(Cl)cc(CN2CC[C@@H](NS(=O)(=O)c3cccc(OC(F)(F)F)c3)C2)cc1Cl [Compound 117] | > 8 µg/mL | > 8 µg/mL | > 8 µg/mL | > 8 µg/mL | > 8 µg/mL | > 8 µg/mL | > 8 µg/mL | > 8 µg/mL | > 8 µg/mL | > 8 µg/mL | > 8 µg/mL | > 8 µg/mL |  |  |  |  |  |  |  |  |  |
| CC(C)Oc1ccc(CN2CC[C@@H](NS(=O)(=O)c3cnc4ccccc4c3)C2)cc1 [Compound 93] | > 8 µg/mL | > 8 µg/mL | > 8 µg/mL | > 8 µg/mL | > 8 µg/mL | > 8 µg/mL | > 8 µg/mL | > 8 µg/mL | > 8 µg/mL | > 8 µg/mL | > 8 µg/mL | > 8 µg/mL |  |  |  |  |  |  |  |  |  |
| N#Cc1cccc(S(=O)(=O)N[C@@H]2CCN(Cc3nc(-c4ccccc4)cs3)C2)c1 [Compound 34] | > 8 µg/mL | > 8 µg/mL | > 8 µg/mL | > 8 µg/mL | > 8 µg/mL | > 8 µg/mL | > 8 µg/mL | > 8 µg/mL | > 8 µg/mL | > 8 µg/mL | > 8 µg/mL | > 8 µg/mL |  |  |  |  |  |  |  |  |  |
| Cc1ccc(S(=O)(=O)N[C@@H]2CCN(Cc3ccc(OC4CC4)cc3)C2)cc1C#N [Compound 162] |  |  |  |  | > 8 µg/mL | > 8 µg/mL |  |  |  | > 8 µg/mL | > 8 µg/mL |  | > 8 µg/mL | > 8 µg/mL | > 8 µg/mL | > 8 µg/mL | > 8 µg/mL | > 8 µg/mL | > 8 µg/mL | > 8 µg/mL |  |
| N#Cc1ccc(Cl)c(S(=O)(=O)N[C@@H]2CCN(Cc3ccc(-c4ccccc4)cc3)C2)c1 [Compound 11] | > 8 µg/mL |  | > 8 µg/mL | 4 µg/mL (≈ 8.85 µM) | > 8 µg/mL | > 8 µg/mL |  | < 0.062 µg/mL | > 8 µg/mL | > 8 µg/mL | > 8 µg/mL |  |  |  |  |  |  |  |  |  | MIC (E. coli BW25113; BW25113, B: E. coli BW25113): ~8 µg/mL (≈ 17.7 µM); MIC ([4]; H: Staphylococcus aureus subsp. aureus): > 8 µg/mL; MIC (E. coli MG1655; MG1655, A: E. coli MG1655): > 8 µg/mL |
| O=S(=O)(N[C@@H]1CCN(Cc2ccc(-c3ccccc3)cc2)C1)c1cccnc1 [Compound 146] |  |  |  |  | > 8 µg/mL | > 8 µg/mL |  |  |  | > 8 µg/mL | > 8 µg/mL |  | > 8 µg/mL | > 8 µg/mL | > 8 µg/mL | > 8 µg/mL | > 8 µg/mL | 8 µg/mL (≈ 20.3 µM) | > 8 µg/mL | > 8 µg/mL |  |
